Where “and” joins values, the source holds several entries; their conditions need not be identical. Identical values can stand only once.
How the values were obtained:
[1] = Whole blood stability; format: in vitro ADME, human
Experimental: (§1) Both matrices were adjusted to pH 7.4 prior to initiating the experiments. A DMSO stock as first prepared for the test article. […] The vials were kept in a benchtop Thermomixer for the duration of the experiment. Aliquots (100 μL) were taken at each time point (0, 15, 30, 60, and 120 minutes) and added to 96-well plates which had been pre-filled with 300 μL of acetonitrile (ACN). Samples were stored at 4° C. until the end of the experiment. […] Analytical conditions are outlined in Appendix 1.

[2] = target: T1, ABCG2/BCRP (Homo sapiens, UniProt Q9UNQ0); settings: Caco-2; without and with Ko143
T1 sequence (Q9UNQ0 1-655): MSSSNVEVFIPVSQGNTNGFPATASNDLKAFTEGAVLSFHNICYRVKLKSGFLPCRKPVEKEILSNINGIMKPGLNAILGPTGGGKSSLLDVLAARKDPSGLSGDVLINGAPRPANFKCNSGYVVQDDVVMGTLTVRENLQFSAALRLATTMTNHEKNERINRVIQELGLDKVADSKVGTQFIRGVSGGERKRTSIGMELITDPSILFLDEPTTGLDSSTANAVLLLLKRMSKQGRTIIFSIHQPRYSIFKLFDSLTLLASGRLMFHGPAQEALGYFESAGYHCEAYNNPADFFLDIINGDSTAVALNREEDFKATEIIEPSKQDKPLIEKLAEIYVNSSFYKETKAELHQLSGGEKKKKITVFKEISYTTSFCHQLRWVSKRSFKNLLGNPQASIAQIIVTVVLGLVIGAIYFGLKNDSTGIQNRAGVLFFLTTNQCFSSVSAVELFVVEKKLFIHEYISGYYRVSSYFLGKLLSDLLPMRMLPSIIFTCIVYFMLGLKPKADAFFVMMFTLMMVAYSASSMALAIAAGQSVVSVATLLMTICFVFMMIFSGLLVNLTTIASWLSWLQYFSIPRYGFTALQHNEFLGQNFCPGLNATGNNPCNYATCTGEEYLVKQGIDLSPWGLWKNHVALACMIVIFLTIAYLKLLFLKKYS
Experimental: Cell monolayers were grown to confluence on collagen-coated, microporous, polycarbonate membranes in 12-well Costar® plates. […] The Transwell permeability assay buffer was Hanks' balanced salt solution (HBSS) containing 10 mM HEPES and 15 mM glucose at a pH of 7.4. The buffer in the receiver chamber also contained 1% bovine serum albumin. […] Cell monolayers were dosed on the apical side (A-to-B) or basolateral side (B-to-A) and incubated at 37° C. with 5% CO2 in a humidified incubator. Samples were taken from the donor and receiver chambers at 120 minutes. Each determination was performed in duplicate. The flux of lucifer yellow post-experimentally was also measured for each monolayer to ensure no damage was inflicted to the cell monolayers during the flux period. All samples were assayed by LC-MS/MS using electrospray ionization. […] The apparent permeability (Papp) and percent recovery were calculated as follows:
Where, dCr/dt is the slope of the cumulative concentration in the receiver compartment versus time in μM s^−1; Vr is the volume of the receiver compartment in cm^3; Vd is the volume of the donor compartment in cm^3; A is the area of the insert (1.13 cm^2 for 12-well Transwell); CA is the average of the nominal dosing concentration and the measured 120 minute donor concentration in μM; CN is the nominal concentration of the dosing solution in μM; Cr^final is the cumulative receiver concentration in M at the end of the incubation period; and Cd^final is the concentration of the donor in μM at the end of the incubation period.
Efflux ratio (ER) is defined as Papp (B-to-A)/Papp (A-to-B).

[3] = target: P-gp (Homo sapiens, UniProt P08183)
[4] = tested on: L5178Y TK+/− mouse lymphoma cells; assay: Mouse Lymphoma Assay (MLA); settings: for Avg. ACE / Avg. MF / Avg. RTG / Avg. SG: 4 h summary
Experimental: The cells were prepared in Fischer's or RPMI media supplemented with 10% heat-inactivated horse serum, penicillin-streptomycin, Lglutamine, sodium pyruvate and Pluronic F68. In the initial assay, prior to use in the test, the culture was purged of preexisting TK−/− mutations by exposure to THMG treated medium for 1 day, followed by a transfer to THG medium for 1 to 2 days. This was performed 5 to 8 days prior to testing. In the expanded assay a vial of frozen cells was thawed and used within 5 to 8 days of growth. No washing was needed because the cells were purged of preexisting TK−/− mutations by exposure to THMG treated medium for 1 day and then THG medium for 1 day prior to freezing. […] Colonies were counted using an automated colony counter or manually. After 4 or 24 hours of exposure, the cells were grown for recovery and expression for approximately 48 hours before plated in TFT cloning media. A second set of plates were prepared without TFT to assess viability of cells following treatment. […] Colonies observed on the TFT plate were defined as small or large colonies. […] (3) Of note, the metabolic activation system in this assay consisted of a rat liver homogenate (S-9 microsomal fraction), which was delivered to the test system in the presence of a core mix consisting of NADP and cofactors for NADPH-supported oxidation. The S9 was prepared using the following recipe (per treatment tube); 1 mL of 20 mg/mL S9, 32 mg of NADP, 60 mg of isocitric acid, 40 μL of calcium chloride (CaCl2) and 3.0 mL of cell cultural media. All treatments were performed in duplicate. The treatment tubes were placed in a CO2 incubator at 37±1° C. with continuous agitation.

[5] = target: human serum albumin (HSA) (Homo sapiens, UniProt P02768); assay: UV spectra (310-450 nm) with HSA; format: physicochemical
[6] = tested on: TA100; assay: Ames Bacterial Reverse Mutation Assay
Experimental: The Ames Bacterial Reverse Mutation (AB™) used five bacterial tester strains (TA97a, TA98, TA100, TA1535, WP2-uvrA).
Tester strains were added to flasks containing nutrient broth and incubated at 37+2° C. overnight. The flasks were removed from the overnight incubation and the final concentration was determined (the OD was measured and determined whether growth was suitable for testing). Top agar was melted, and 2.0 mL was dispensed into heated culture tubes. The S9 mix (metabolic activation) was prepared and stored on ice. […] Each culture tube was vortexed and immediately poured onto the labeled minimal glucose agar plates. All plates were inverted and placed into a 37±1° C. incubator for 48-72 hours. The plates were counted via an automated colony counter or by hand and the background lawn was microscopically evaluated for any signs of toxicity. Genotypic control plates were prepared for each tester strain and incubated for 24-72 hours at 37±1° C.

[7] = Plasma stability; format: in vitro ADME, human
Experimental: as §1

human serum albumin (HSA), sequence (P02768 25-609): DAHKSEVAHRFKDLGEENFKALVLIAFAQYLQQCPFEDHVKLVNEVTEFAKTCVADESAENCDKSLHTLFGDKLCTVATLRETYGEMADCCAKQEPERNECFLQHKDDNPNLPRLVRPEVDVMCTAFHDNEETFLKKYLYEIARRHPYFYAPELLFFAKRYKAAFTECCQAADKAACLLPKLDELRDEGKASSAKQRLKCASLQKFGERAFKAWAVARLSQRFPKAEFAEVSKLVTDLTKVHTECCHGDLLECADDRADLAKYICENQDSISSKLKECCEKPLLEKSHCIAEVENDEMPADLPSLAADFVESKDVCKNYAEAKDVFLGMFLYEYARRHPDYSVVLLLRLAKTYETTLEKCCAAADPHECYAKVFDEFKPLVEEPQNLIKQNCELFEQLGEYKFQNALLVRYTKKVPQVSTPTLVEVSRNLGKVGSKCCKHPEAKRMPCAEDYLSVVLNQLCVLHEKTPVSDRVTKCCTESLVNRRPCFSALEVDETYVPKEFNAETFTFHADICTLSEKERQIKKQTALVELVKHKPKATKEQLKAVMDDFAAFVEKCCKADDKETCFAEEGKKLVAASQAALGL
P-gp, sequence (P08183 whole entry): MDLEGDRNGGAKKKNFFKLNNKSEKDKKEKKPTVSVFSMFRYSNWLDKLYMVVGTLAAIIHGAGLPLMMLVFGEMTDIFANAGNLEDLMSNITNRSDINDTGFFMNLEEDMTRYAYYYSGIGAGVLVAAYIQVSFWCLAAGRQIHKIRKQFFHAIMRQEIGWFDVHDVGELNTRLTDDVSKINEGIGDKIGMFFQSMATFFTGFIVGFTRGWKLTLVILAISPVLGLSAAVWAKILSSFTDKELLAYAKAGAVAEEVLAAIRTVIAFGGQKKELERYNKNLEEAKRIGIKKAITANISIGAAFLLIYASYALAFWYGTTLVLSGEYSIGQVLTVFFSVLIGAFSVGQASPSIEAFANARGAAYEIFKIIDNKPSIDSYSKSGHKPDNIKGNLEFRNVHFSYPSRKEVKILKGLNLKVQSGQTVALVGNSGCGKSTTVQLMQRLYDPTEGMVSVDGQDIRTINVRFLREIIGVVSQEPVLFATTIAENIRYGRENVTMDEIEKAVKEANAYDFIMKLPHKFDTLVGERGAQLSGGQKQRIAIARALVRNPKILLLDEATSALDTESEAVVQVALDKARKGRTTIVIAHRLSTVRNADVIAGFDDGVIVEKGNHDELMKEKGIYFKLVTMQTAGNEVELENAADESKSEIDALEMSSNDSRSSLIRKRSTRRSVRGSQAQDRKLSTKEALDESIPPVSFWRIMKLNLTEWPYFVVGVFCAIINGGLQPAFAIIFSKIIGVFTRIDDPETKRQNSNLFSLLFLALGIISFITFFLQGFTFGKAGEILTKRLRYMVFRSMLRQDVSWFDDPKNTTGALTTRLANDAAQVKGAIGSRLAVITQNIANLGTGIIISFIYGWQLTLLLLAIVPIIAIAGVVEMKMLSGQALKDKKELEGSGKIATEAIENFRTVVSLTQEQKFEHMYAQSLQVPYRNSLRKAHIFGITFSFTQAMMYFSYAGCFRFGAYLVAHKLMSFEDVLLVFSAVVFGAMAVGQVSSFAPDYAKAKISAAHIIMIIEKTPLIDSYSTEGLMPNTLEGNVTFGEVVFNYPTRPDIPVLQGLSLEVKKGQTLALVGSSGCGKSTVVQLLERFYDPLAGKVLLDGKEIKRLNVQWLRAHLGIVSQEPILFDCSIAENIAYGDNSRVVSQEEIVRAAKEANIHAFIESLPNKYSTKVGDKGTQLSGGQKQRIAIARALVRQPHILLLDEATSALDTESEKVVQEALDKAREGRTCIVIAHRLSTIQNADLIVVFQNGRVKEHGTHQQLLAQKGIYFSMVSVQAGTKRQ

For `CCC1(O)C(=O)OCc2c1cc1n(c2=O)Cc2cc3cc4c(cc3nc2-1)OCO4` (centres unmarked) [FL118], the half-life ([1]; 0.5 μM) was “long half-life”, the “Percent Remaining” value ([1]; Human Whole Blood, 0 min) was 100% and the “Percent Remaining” value ([1]; Human Whole Blood, 15 min) was 108%. For the same compound, the “Percent Remaining” value ([1]; Human Whole Blood, 30 min) was 68%, the “Percent Remaining” value ([1]; Human Whole Blood, 60 min) was 61% and the “Percent Remaining” value ([1]; Human Whole Blood, 120 min) was 35%. For the same compound, the half-life at 0.5 μM ([1]; both sexes, whole blood (sodium heparin), pH 7.4, Human Whole Blood) was 1.23 h, the “BCRP Substrate Classification” value [2] was “Negative (ER≥2.0 without Ko143, and reduced by <50% with Ko143: Negative)” and the “inhibition of P-gp transport of digoxin” value ([3]; 1.0 μM FL118) was “does not inhibit digoxin acting as a BCRP substrate”. The “P-gp Inhibition Potential Classification” value ([3]; Caco-2, digoxin as substrate, 1.0 μM FL118 or 1.0 μM Valspodar) was “Negative (without inhibitor, and reduced by <50 with inhibitor: Negative)”, the “concentrations considered unable to induce mutation” value (from here on “concentrations considered unable”) ([4]; 4-hour +S9) was ≤ 320 nM and the “concentrations considered positive (mutagenic/clastogenic)” value ([4]; 4-hour -S9) was > 100 nM. The “concentrations considered unable” value ([4]; 4-hour -S9) was ≤ 32 nM, the “Average SG” value ([4]; 4 h, +S9, 0.1 uM) was 12.9 and the “Day 1 Growth Cell Conc.” value ([4]; 4 h, +S9, 0.1 uM) was 6.71E+05 Cell/mL and 7.82E+05 Cell/mL. For the same compound, the “Day 2 Growth Cell Conc.” value ([4]; 4 h, +S9, 0.1 uM) was 1.55E+06 Cell/mL and 1.64E+06 Cell/mL, the “Suspension Growth (SG)” value ([4]; 4 h, +S9, 0.1 uM) was 11.4 and 14.3 and the “Average SG” value ([4]; 4 h, +S9, 1 uM) was 10.7. The “Day 1 Growth Cell Conc.” value ([4]; 4 h, +S9, 1 uM) was 7.55E+05 Cell/mL and 6.56E+05 Cell/mL, the “Day 2 Growth Cell Conc.” value ([4]; 4 h, +S9, 1 uM) was 1.27E+06 Cell/mL and 1.45E+06 Cell/mL and the “Suspension Growth (SG)” value ([4]; 4 h, +S9, 1 uM) was 10.5 and 10.8. The “concentrations considered positive (mutagenic/clastogenic)” value ([4]; 4 hour +S9) was > 1000 nM, the “Avg. ACE” value ([4]; +S9, 0.1 uM) was 82.5% and the “Avg. MF” value ([4]; +S9, 0.1 uM) was 71 ×10^−6. The “Avg. RTG” value ([4]; +S9, 0.1 uM) was 98.8%, the “Avg. SG” value ([4]; +S9, 0.1 uM) was 12.9 and the “Avg. ACE” value ([4]; +S9, 1 uM) was 62.3%. For the same compound, the “Avg. MF” value ([4]; +S9, 1 uM) was 231 ×10^−6, the “Avg. RTG” value ([4]; +S9, 1 uM) was 81.5% and the “Avg. SG” value ([4]; +S9, 1 uM) was 10.7. The “Average SG” value ([4]; 24 h, 0.001 uM) was 66.2, the “Suspension Growth (SG)” value ([4]; 24 h, 0.001 uM) was 55.8 and 65.5 and the “Average SG” value ([4]; 24 h, 0.1 uM) was 29.1. The “Suspension Growth (SG)” value ([4]; 24 h, 0.1 uM) was 29.0 and 29.1, the “concentrations considered positive (mutagenic/clastogenic)” value ([4]; 24 hour -S9) was ≥ 100 nM and the “concentrations considered unable” value ([4]; 24 hour -S9) was ≤ 32 nM. The “interaction with HSA (UV absorbance decrease)” value ([5]; 10 μM in PBS with 4% HSA) was “strong interaction”, the “interaction with HSA (UV absorbance decrease)” value ([5]; 10 μM, high NaCl salt, 4% HSA) was “strong interaction” and the bacterial strain mutation [6] was “does not induce”. The “mean revertant colonies over negative control” value ([6]; +/− S9) was “less than 2 fold”, the “Background Lawn Code” value ([6]; TA100, 0.010 μM +S9) was 1 and the “Colony Counts Average” value ([6]; TA100, 0.010 μM +S9) was 92. The “Colony Counts Replicate 1-3” value ([6]; TA100, 0.010 μM +S9) was 101 and 96 and 79, the “Background Lawn Code” value ([6]; TA100, 0.010 μM −S9) was 1 and the “Colony Counts Average” value ([6]; TA100, 0.010 μM −S9) was 77. For the same compound, the “Colony Counts Replicate 1-3” value ([6]; TA100, 0.010 μM −S9) was 72 and 79 and 80, the “Background Lawn Code” value ([6]; TA100, 0.10 μM +S9) was 1 and the “Colony Counts Average” value ([6]; TA100, 0.10 μM +S9) was 89. The “Colony Counts Replicate 1-3” value ([6]; TA100, 0.10 μM +S9) was 96 and 74 and 98, the “Background Lawn Code” value ([6]; TA100, 0.10 μM −S9) was 1 and the “Colony Counts Average” value ([6]; TA100, 0.10 μM −S9) was 87. The “Colony Counts Replicate 1-3” value ([6]; TA100, 0.10 μM −S9) was 89 and 77 and 94, the “Background Lawn Code” value ([6]; TA100, 1.0 μM +S9) was 1 and the “Colony Counts Average” value ([6]; TA100, 1.0 μM +S9) was 99. For the same compound, the “Colony Counts Replicate 1-3” value ([6]; TA100, 1.0 μM +S9) was 105 and 106 and 87, the “Background Lawn Code” value ([6]; TA100, 1.0 μM −S9) was 1 and the “Colony Counts Average” value ([6]; TA100, 1.0 μM −S9) was 83. The “Colony Counts Replicate 1-3” value ([6]; TA100, 1.0 μM −S9) was 94 and 75 and 81, the half-life ([7]; 0.5 μM) was “long half-life” and the “Percent Remaining” value ([7]; Human Plasma, 0 min) was 100%. For the same compound, the “Percent Remaining” value ([7]; Human Plasma, 15 min) was 111%, the “Percent Remaining” value ([7]; Human Plasma, 30 min) was 110% and the “Percent Remaining” value ([7]; Human Plasma, 60 min) was 94%. The “Percent Remaining” value ([7]; Human Plasma, 120 min) was 26% and the half-life at 0.5 μM ([7]; both sexes, plasma (sodium heparin), pH 7.4, Human Plasma) was 1.53 h.

— patent US20250312469A1 (CANGET BIOTEKPHARMA, priority 2024, published 2025)
